Assay results published in patent US20230398130A1, “METHODS AND COMPOSITIONS FOR DIFFERENTIATING STEM CELLS” (Massachusetts Institute of Technology, priority 2020, published 2023).
Read-outs that look alike come from different tables or passages of the source.

Key:
[1] = test system: ISC-enriched organoids; experiment: Secondary (validation) screen, 384-well 2.5-D, ENR+CD 6 days, n=8 wells, vs ENR+CD+DMSO control: carbachol-induced lysozyme secretion (LYZ.S); format: cell-based, murine
[2] = In vivo oral gavage of KPT-330 every other day for two weeks: body weight; parameters: species or system C57BL/6 wild-type mice
Method: Following a similar protocol as previously reported for SINE treatment in the context of cancer (Arango et al., 2017; Azmi et al., 2013; Hing et al., 2016; Zheng et al., 2014), KPT-330 was administered at a dose 10 mg/kg via oral gavage every other day over a two-week span in C57BL/6 wild-type mice, and body weight was monitored for any clear toxicity. […] Given animal weight loss on the standard chemotherapeutic dosage regimen, and additional evidence that sustained dosage of SINEs adversely impacts T cell populations (Tyler et al., 2017), Applicants sought to explore dosing regimens well below 10 mg/kg, to see if a pro-Paneth phenotype may exist below potential toxicities. […] Applicants tracked animal weight every other day, and at day 14 collected the proximal and distal thirds of the small intestine for histological quantification of Paneth, stem, and goblet populations (FIG. 26A). […] Paneth cells were counted within well preserved crypts, with at minimum 30 crypts quantified per animal (representative images FIG. 30C) and then averaged to get mean Paneth cells per crypt in distal and proximal thirds of the small intestine. […] Applicants additionally quantified the abundance of Olfm4+ stem cells as well as PAS+ goblet cells within the same animals to ascertain whether the effect of SINE treatment was restricted to the Paneth cell compartment (representative images FIG. 30D,E). […]

[3] = test system: small intestine; parameters: cycling cell number: dose or concentration left out as unconfirmed
From the text: FIG. 20—KPT-330 treatment in vivo.
FIG. 21A-21C—Analysis of samples collected from the mice of FIG. 20. A. Western blot for lysozyme of samples collected from the small intestine proximal region. B. Graph showing band intensity of the western blot in (A). C. Histological analysis of the distal small intestine from control and treated mice using immunohistochemistry for lysozyme.
FIG. 22—Analysis of samples collected from the mice of FIG. 20. […] Graphs showing Paneth cell, Goblet cell, and cycling cell numbers in the proximal and distal small intestines under each treatment condition using markers for each cell type.

`O=C(/C=C\n1cnc(-c2cc(C(F)(F)F)cc(C(F)(F)F)c2)n1)NNc1cnccn1` [KPT-330] gave a Z.LYZ.S ([1]; Dose 0.02 uM) of −0.028, a repSSMD.LYZ.S ([1]; Dose 0.02 uM) of −0.044 and a Z.LYZ.S ([1]; Dose 0.04 uM) of −0.587. The repSSMD.LYZ.S ([1]; Dose 0.04 uM) was −0.955, the Z.LYZ.S ([1]; dose 0.08 uM) was 1.031 and the repSSMD.LYZ.S ([1]; dose 0.08 uM) was 1.678. The “increase in LYZ.S (stimulated LYZ secretion) relative to ENR+CD control” value ([1]; validated doses, secondary screen) was 50-75%, the body weight ([2]; 0.01, 0.05 or 0.2 mg/kg oral gavage every other day) was “no significant changes in animal weight at any dose” and the body weight ([2]; 10 mg/kg oral gavage every other day) was “significant weight loss indicative of toxicity”. The Paneth cell number ([3]; distal small intestines, high dose) was “the high dose decreased Paneth cells”, the cycling cell number ([3]; distal small intestines, low dose) was “significant increase in cycling cell number” and the toxicity to mice ([3]; mouse, in vivo) was “toxic to mice”. For the same compound, the Paneth cell number ([3]; proximal small intestines) was “no significant shift in Paneth cell number” and the goblet cell numbers ([3]; proximal/distal small intestines) was “no significant shift in goblet cell numbers, but the trend was an increase”.
